Measurements published in the NIST ThermoML archive (doi:10.1016/j.jct.2015.01.003).
Numbers after ± are expanded uncertainties.

Experiment: excess molar enthalpy (molar enthalpy of mixing); xn = mol fraction of the nth substance listed
Conditions: 100 kPa, Liquid, Flow calorimetry

In the case of Cc1ccccc1 [toluene] + CCCO, the excess molar enthalpy (298.15 K, x1 = 0.0503) is reported as 0.0239 ± 0.00263 kcal/mol, the excess molar enthalpy (298.15 K, x1 = 0.0998) is reported as 0.0488 ± 0.00263 kcal/mol and the excess molar enthalpy (298.15 K, x1 = 0.1497) is reported as 0.0731 ± 0.00263 kcal/mol. For the same compound, the excess molar enthalpy (298.15 K, x1 = 0.2) was 0.098 ± 0.00263 kcal/mol, the excess molar enthalpy (298.15 K, x1 = 0.2506) was 0.122 ± 0.00263 kcal/mol and the excess molar enthalpy (298.15 K, x1 = 0.2997) was 0.144 ± 0.00287 kcal/mol. It also gave an excess molar enthalpy (298.15 K, x1 = 0.3506) of 0.165 ± 0.00287 kcal/mol, an excess molar enthalpy (298.15 K, x1 = 0.3997) of 0.183 ± 0.00287 kcal/mol and an excess molar enthalpy (298.15 K, x1 = 0.4505) of 0.201 ± 0.00287 kcal/mol. It also gave an excess molar enthalpy (298.15 K, x1 = 0.5012) of 0.214 ± 0.00287 kcal/mol, an excess molar enthalpy (298.15 K, x1 = 0.5495) of 0.225 ± 0.00311 kcal/mol and an excess molar enthalpy (298.15 K, x1 = 0.5993) of 0.233 ± 0.00311 kcal/mol. For the same compound, the excess molar enthalpy (298.15 K, x1 = 0.651) was 0.238 ± 0.00311 kcal/mol, the excess molar enthalpy (298.15 K, x1 = 0.6997) was 0.238 ± 0.00311 kcal/mol and the excess molar enthalpy (298.15 K, x1 = 0.7501) was 0.234 ± 0.00311 kcal/mol. The excess molar enthalpy (298.15 K, x1 = 0.7996) was 0.223 ± 0.00311 kcal/mol, the excess molar enthalpy (298.15 K, x1 = 0.8506) was 0.205 ± 0.00311 kcal/mol and the excess molar enthalpy (298.15 K, x1 = 0.9008) was 0.176 ± 0.00311 kcal/mol. For the same compound, the excess molar enthalpy (298.15 K, x1 = 0.9496) was 0.126 ± 0.00311 kcal/mol, the excess molar enthalpy (313.15 K, x1 = 0.0503) was 0.0339 ± 0.00263 kcal/mol and the excess molar enthalpy (313.15 K, x1 = 0.0998) was 0.0681 ± 0.00263 kcal/mol. The excess molar enthalpy (313.15 K, x1 = 0.1497) was 0.0994 ± 0.00287 kcal/mol, the excess molar enthalpy (313.15 K, x1 = 0.2001) was 0.133 ± 0.00287 kcal/mol and the excess molar enthalpy (313.15 K, x1 = 0.2507) was 0.163 ± 0.00287 kcal/mol. For the same compound, the excess molar enthalpy (313.15 K, x1 = 0.2997) was 0.191 ± 0.00287 kcal/mol, the excess molar enthalpy (313.15 K, x1 = 0.3507) was 0.217 ± 0.00311 kcal/mol and the excess molar enthalpy (313.15 K, x1 = 0.3998) was 0.238 ± 0.00311 kcal/mol. The excess molar enthalpy (313.15 K, x1 = 0.4506) was 0.258 ± 0.00311 kcal/mol, the excess molar enthalpy (313.15 K, x1 = 0.5013) was 0.273 ± 0.00335 kcal/mol and the excess molar enthalpy (313.15 K, x1 = 0.5495) was 0.285 ± 0.00335 kcal/mol. It also gave an excess molar enthalpy (313.15 K, x1 = 0.5995) of 0.293 ± 0.00335 kcal/mol, an excess molar enthalpy (313.15 K, x1 = 0.651) of 0.297 ± 0.00335 kcal/mol and an excess molar enthalpy (313.15 K, x1 = 0.6998) of 0.296 ± 0.00335 kcal/mol. It also gave an excess molar enthalpy (313.15 K, x1 = 0.7501) of 0.288 ± 0.00335 kcal/mol, an excess molar enthalpy (313.15 K, x1 = 0.7996) of 0.273 ± 0.00335 kcal/mol and an excess molar enthalpy (313.15 K, x1 = 0.8507) of 0.248 ± 0.00335 kcal/mol. It also gave an excess molar enthalpy (313.15 K, x1 = 0.9007) of 0.21 ± 0.00335 kcal/mol and an excess molar enthalpy (313.15 K, x1 = 0.9496) of 0.143 ± 0.00335 kcal/mol.
For c1ccccc1 [benzene] + CCCO, the excess molar enthalpy (298.15 K, x1 = 0.0492) was 0.0253 ± 0.00263 kcal/mol, the excess molar enthalpy (298.15 K, x1 = 0.0993) was 0.0523 ± 0.00263 kcal/mol and the excess molar enthalpy (298.15 K, x1 = 0.1503) was 0.0798 ± 0.00263 kcal/mol. For the same compound, the excess molar enthalpy (298.15 K, x1 = 0.2006) was 0.106 ± 0.00263 kcal/mol, the excess molar enthalpy (298.15 K, x1 = 0.2499) was 0.132 ± 0.00287 kcal/mol and the excess molar enthalpy (298.15 K, x1 = 0.3001) was 0.156 ± 0.00287 kcal/mol. The excess molar enthalpy (298.15 K, x1 = 0.3493) was 0.178 ± 0.00287 kcal/mol, the excess molar enthalpy (298.15 K, x1 = 0.3994) was 0.198 ± 0.00287 kcal/mol and the excess molar enthalpy (298.15 K, x1 = 0.4505) was 0.217 ± 0.00311 kcal/mol. The excess molar enthalpy (298.15 K, x1 = 0.5004) was 0.231 ± 0.00311 kcal/mol, the excess molar enthalpy (298.15 K, x1 = 0.5491) was 0.243 ± 0.00311 kcal/mol and the excess molar enthalpy (298.15 K, x1 = 0.5987) was 0.251 ± 0.00311 kcal/mol. For the same compound, the excess molar enthalpy (298.15 K, x1 = 0.6492) was 0.256 ± 0.00311 kcal/mol, the excess molar enthalpy (298.15 K, x1 = 0.7006) was 0.255 ± 0.00311 kcal/mol and the excess molar enthalpy (298.15 K, x1 = 0.7507) was 0.249 ± 0.00311 kcal/mol. The excess molar enthalpy (298.15 K, x1 = 0.7994) was 0.237 ± 0.00311 kcal/mol, the excess molar enthalpy (298.15 K, x1 = 0.8489) was 0.217 ± 0.00311 kcal/mol and the excess molar enthalpy (298.15 K, x1 = 0.8992) was 0.184 ± 0.00311 kcal/mol. For the same compound, the excess molar enthalpy (298.15 K, x1 = 0.9504) was 0.128 ± 0.00311 kcal/mol, the excess molar enthalpy (313.15 K, x1 = 0.0493) was 0.0325 ± 0.00263 kcal/mol and the excess molar enthalpy (313.15 K, x1 = 0.0995) was 0.0662 ± 0.00263 kcal/mol. For the same compound, the excess molar enthalpy (313.15 K, x1 = 0.1506) was 0.1 ± 0.00287 kcal/mol, the excess molar enthalpy (313.15 K, x1 = 0.2009) was 0.133 ± 0.00287 kcal/mol and the excess molar enthalpy (313.15 K, x1 = 0.2503) was 0.162 ± 0.00287 kcal/mol. It also gave an excess molar enthalpy (313.15 K, x1 = 0.3005) of 0.191 ± 0.00287 kcal/mol, an excess molar enthalpy (313.15 K, x1 = 0.3498) of 0.217 ± 0.00311 kcal/mol and an excess molar enthalpy (313.15 K, x1 = 0.3999) of 0.24 ± 0.00311 kcal/mol. For the same compound, the excess molar enthalpy (313.15 K, x1 = 0.451) was 0.262 ± 0.00311 kcal/mol, the excess molar enthalpy (313.15 K, x1 = 0.5009) was 0.278 ± 0.00335 kcal/mol and the excess molar enthalpy (313.15 K, x1 = 0.5497) was 0.291 ± 0.00335 kcal/mol. It also gave an excess molar enthalpy (313.15 K, x1 = 0.5993) of 0.299 ± 0.00335 kcal/mol, an excess molar enthalpy (313.15 K, x1 = 0.6497) of 0.303 ± 0.00335 kcal/mol and an excess molar enthalpy (313.15 K, x1 = 0.701) of 0.3 ± 0.00335 kcal/mol. It also gave an excess molar enthalpy (313.15 K, x1 = 0.7511) of 0.291 ± 0.00335 kcal/mol, an excess molar enthalpy (313.15 K, x1 = 0.7997) of 0.276 ± 0.00335 kcal/mol and an excess molar enthalpy (313.15 K, x1 = 0.8491) of 0.25 ± 0.00335 kcal/mol. It also gave an excess molar enthalpy (313.15 K, x1 = 0.8994) of 0.209 ± 0.00335 kcal/mol and an excess molar enthalpy (313.15 K, x1 = 0.9505) of 0.14 ± 0.00335 kcal/mol.
